The values that follow come from US20100280023A1, “THIAZOLE DERIVATIVES” (KYOWA HAKKO KOGYO CO., LTD., priority 2005, published 2010).

The melting point is the temperature of the solid-liquid transition.

Series [1] has as its system CGS21680-induced catalepsy. Kind of series: Effect on CGS21680-induced catalepsy. Format: in vivo, male ddY mice. To be noted: mice; 10 mg/kg orally 30 minutes before i.c.v. CGS21680 10 μg/20 μL; scored 1 hour after administration; 80% or more judged active. The procedure: Parkinson's disease is motor dysfunction based on the degeneration and cell death of the nigrostriatal dopaminergic neuron. […] Therefore, it is considered that the adenosine A2A receptor functions to promote the output of GABAergic neurons from the corpus striatum into the external segment of globus pallidus, and as a result, catalepsy is induced by the administration of CGS21680.
The experiment was carried out using 10 male ddY mice of 5 weeks of age (body weight, 22 to 25 g, by Nippon SLC) per group. CGS21680 (by Kyowa Hakko Kogyo) was dissolved in physiological saline (by Otsuka Pharmaceutical), and intracerebroventricularly injected to the mice in an amount of 10 μg/20 μL. The test compound was used by being suspended in distilled water containing 0.5 w/v % methyl cellulose 400 cP (hereinafter abbreviated as MC) (by Otsuka Pharmaceutical). […] At 1 hour after the administration of the test compound, the degree of catalepsy was measured with respect to each of the mice such that a pair of only forelimbs and a pair of only hindlimbs of each mouse were placed by turns on a vertically installed acrylic stand with a height of 4.5 cm and a width of 1.0 cm. […]
The catalepsy remission rate was calculated according to the following equation. […]

For series [2], the target named is T1, Rat adenosine A2A receptor (Rattus norvegicus, UniProt P30543).
T1 construct: tissue Nippon SLC (animals); host or cells: rat (SD) corpus striatum membrane preparation
T1 sequence (P30543 whole entry): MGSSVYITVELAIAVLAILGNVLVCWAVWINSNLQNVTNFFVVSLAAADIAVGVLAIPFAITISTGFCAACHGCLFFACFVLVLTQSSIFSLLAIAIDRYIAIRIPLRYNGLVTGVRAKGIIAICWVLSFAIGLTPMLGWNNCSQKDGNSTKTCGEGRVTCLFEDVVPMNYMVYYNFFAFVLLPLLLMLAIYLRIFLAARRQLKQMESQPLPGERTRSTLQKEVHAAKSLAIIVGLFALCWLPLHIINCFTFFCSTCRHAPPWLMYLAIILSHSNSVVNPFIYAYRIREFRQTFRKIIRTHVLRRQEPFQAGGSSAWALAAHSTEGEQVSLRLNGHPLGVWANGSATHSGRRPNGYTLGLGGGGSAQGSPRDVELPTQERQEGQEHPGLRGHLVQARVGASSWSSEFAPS
Kind of series: Adenosine A2A receptor binding test (3H-CGS21680 binding, rat corpus striatum membranes). To be noted: test compound 10^−7 mol/L, 25° C., 120 minutes, read-out: Rat adenosine A2A receptor binding inhibition rate (%) (10^−7 mol/L). Here is the method: This test was carried out in a similar manner to a Bruns et al's method (Molecular Pharmacology, Vol. 29, p. 331, 1986).
Corpus striatum of a rat (SD rat, by Nippon SLC) was suspended in 50 mL of an ice-cooled 50 mmol/L tris(hydroxymethyl)aminomethane hydrochloride (Tris-HCl) buffer (pH 7.7) using a polytron homogenizer (by Kinematica). The resulting suspension was centrifuged (48,000×g, 20 minutes), and the resulting precipitate was resuspended by adding the same amount of a 50 mmol/L Tris-HCl buffer, followed by centrifugation under the same condition. The resulting final precipitate was suspended by adding a 50 mmol/L Tris-HCl buffer [containing 10 mmol/L magnesium chloride, adenosine deaminase 0.02 units/mg tissue (by Sigma)] thereto so that the tissue concentration was 5 mg (wet weight)/mL.
To 100 μl, of the above purified cell suspension, 80 μL (final concentration: […]) of tritium-labeled CGS-21680 {^3H-2-[p-(2-carboxyethyl)phenethylamino]-5′-(N-ethylcarboxamido)-adenosine: 40 curies/mmol: by New England Nuclear [The Journal of Pharmacology and Experimental Therapeutics, Vol. 251, p. 888, 1989]) and 20 μL of a test compound solution (10^−7 mol/L; a solution of a test compound in DMSO was diluted with a Tris-HCl buffer) were added. The resulting mixture was allowed to stand at 25° C. for 120 minutes, followed by rapid suction filtration through a glass fiber paper filter (GF/C; by Whatman). The filter was immediately washed three times with 200 μL of an ice-cooled 50 mmol/L Tris-HCl buffer. The glass fiber paper filter was transferred into a vial, Microscinti (by Perkin Elmer) was added thereto, and the radioactivity level was measured with Topcount (by Perkin Elmer).
The inhibition rate of the test compound to the adenosine A2A receptor binding (3H-CGS21680 binding) was calculated according to the following equation.
Inhibition rate (%)={1−[(Amount of binding in the presence of compound)−(Amount of non-specific binding)]/[(Amount of total binding)−(Amount of non-specific binding)]}×100
Amount of total binding means the ^3H-CGS21680 binding radioactivity content in the absence of the test compound. Amount of non-specific binding means the ^3H-CGS21680 binding radioactivity content in the presence of 100 μmol/L cyclopentyladenosine (CPA; by Sigma). Amount of binding in the presence of compound means the ^3H-CGS21680 binding radioactivity content in the presence of 10^−7 mol/L, of the test compound.

In turn, `O=C(c1sc(-c2nc3ncccc3[nH]2)nc1-c1ccco1)C1CCOCC1` [Compound 17, 4-(2-Furyl)-2-(imidazo[4,5-b]pyridin-2-yl)thiazol-5-yl tetrahydropyran-4-yl ketone] registered a catalepsy remission rate in series [1] of 100%.

On to `O=C(c1ccccn1)c1sc(-c2nc3c([nH]2)CSCC3)nc1-c1ccco1` [Compound 29, 4-(2-Furyl)-5-(pyridin-2-ylcarbonyl)-2-(3,4,6,7-tetrahydrothiopyrano[3,4-d]imidazol-2-yl)thiazole], for which, in series [2], the inhibition at 0.1 µM amounted to 90%.

With `O=C(Nc1ccccc1)c1nc(-c2ccco2)c(C(=O)C2CCOCC2)s1` [Compound 32, 4-(2 Furyl)-5-(tetrahydropyran-4-ylcarbonyl)thiazol-2-carboxylic acid phenylamide], the inhibition at 0.1 µM in series [2] was determined as 26%. Compound `COc1ccc(-c2c[nH]c(-c3nc(-c4ccco4)c(C(=O)C4CCOCC4)s3)n2)cc1` [Compound 19, 4-(2-Furyl)-2-[4-(4-methoxyphenyl)imidazol-2-yl]thiazol-5-yl tetrahydropyran-4-yl ketone] displayed a melting point of 178 to 180 °C. For the same compound, the inhibition at 0.1 µM in series [2] stood at 63%. As for `O=C(c1sc(-c2nc3cnccc3[nH]2)nc1-c1ccco1)C1CCOCC1` [Compound 18, 4-(2-Furyl)-2-(imidazo[4,5-c]pyridin-2-yl)thiazol-5-yl tetrahydropyran-4-yl ketone], the inhibition at 0.1 µM in series [2] was 81%. Still for that read-out and setting: the value for `CC(C)CNC(=O)c1nc(-c2ccco2)c(C(=O)C2CCOCC2)s1` [Compound 33, 4-(2-Furyl)-5-(tetrahydropyran-4-ylcarbonyl)thiazol-2-carboxylic acid isobutylamide] was 50%; that for `O=C(c1ccccn1)c1sc(-c2nc3ccccc3[nH]2)nc1-c1ccco1` [Compound 24, 4-(2-Furyl)-5-(pyridin-2 ylcarbonyl)-2-(2-benzimidazolyl)thiazole] was 94%.
